US20240216444A1, “DESIGNED BACTERIAL COMPOSITIONS” (Seres Therapeutics, Inc., priority 2015, published 2024)
Where two headings read alike, the source gives them in different places.

Assays:
[1] = system: bile salt hydrolase (BSH) activity on conjugated bile acids; test: LC-MS screen for bile salt hydrolase (BSH) activity; conditions: for BSH gCA: substrate gCA; for BSH gCDCA: substrate gCDCA; for BSH t-aMCA: substrate t-aMCA; for BSH t-bMCA: substrate t-bMCA; for BSH tCA: substrate tCA; for BSH tCDCA: substrate tCDCA
Method: To conduct the assay, briefly, bacteria were grown on permissive agar media plates for 24 to 48 hours to generate sufficient biomass to carry out assays. The bacterial lawns were resuspended in PBS to create a homogenous suspension that was then used for the BSH assay. To assay for BSH activity, bacterial suspensions were incubated with two separate mixtures of four distinct conjugated bile acids, each at concentration of 150 μg/ml, for 4 hours at 37° C. under anaerobic conditions. The reaction mixture was then extracted with an equal volume of acetonitrile, spun down to pellet bacteria and the supernatant filtered through a 0.2 μM filter to generate a sample for LC-MS analysis. Bile acids were determined using an Agilent 1260 HPLC coupled to a Bruker Compact qTOF MS. Samples were run on a bidentate C18 column using an acetonitrile:water buffer system to separate bile acids which were then ionized in negative mode and identified using a qTOF-MS. BSH activity was determined by the formation of deconjugated bile acid products that were verified by comparison to known standards and quantified, if necessary, using standard curves.

[2] = system: HSDH activity (7-, 3- or 12-hydroxyl groups) on cholic, chenodeoxycholic, deoxycholic and lithocholic acid; test: LC-MS screen for hydroxysteroid dehydrogenase (HSDH) activity; type: biochemical
[3] = system: 7α-dehydroxylation of cholic acid and chenodeoxycholic acid; test: LC-MS screen for 7α-dehydroxylation (7α-OH) activity; type: biochemical
[4] = Indole spot test of supernatants on paper soaked with Indole Reagent; conditions: 4 μL spotted on paper soaked with Indole Reagent
[5] = system: HDAC enzymes (HeLa nuclear extract); test: HDAC-Glo I/II assay with serial dilutions of SCFAs; type: biochemical; conditions: for HDAC inhibition activity at the highest tested concentration: 3.75 mM
Method: For this experiment, the HeLa nuclear extract provided in the kit was used as the source of HDAC enzymes. […] In this assay, deacetylation of the provided substrate by HDACs results in a luminescence signal that is detected with a suitable plate reader (Spectramax m5). HDAC inhibition decreases the luminescence signal compared to the no inhibitor control. The experiment was carried out according to the manufacturer's instructions as follows: 50 μL of HeLa nuclear extract diluted 1:3000 in assay buffer was mixed with 50 μL of inhibitor solution (serial dilutions of SCFAs in assay buffer) and incubated for 30 minutes. 100 μL of developer solution were added to each well, and luminescence was measured after 45 minutes of incubation at room temperature.

[6] = system: C. difficile carbon sources; test: Carbon source utilization, 87 carbon sources in three base media, OD600 and acid production (Example 3B); type: cell-based; set-up: key: “+” and “w” refer to “positive” and “weak” utilization of the carbon source, respectively; “+” and “w” refer to “positive” and “weak” utilization of the carbon source, respectively
From the text: Three C. difficile strains and 12 non-C. difficile bacterial strains were profiled using a panel of carbon sources. As used herein, unless otherwise indicated, carbon sources includes all sources tested as growth substrates in the experiments herein. The three C. difficile strains were Clostridium difficile ATCC 9689, Clostridium difficile ATCC 43593, and Clostridium difficile ATCC 43255, all of which are available from the American Type Culture Collection (ATCC).
Growth of the strains was tested on 87 different carbon sources in a 96-well plate format. The panel contained 34 carbon sources reported to be utilized by C. difficile in the literature (Hafiz and Oakley. 1976 J Med Microbiol 9:129-36; Wilson and Perini. 1988 Infection and Immunity 56:2610-14; Bergey and Holt. Bergey's Manual of Determinative Bacteriology. Baltimore: Williams & Wilkins, 1994; Sebaihia et al. 2006 Nature Genetics 38:779-786) including amino acids, mono-, di-, tri- and polysaccharides, glucoside and sugar alcohols. Carbon sources were added at 0.5% into three different base media (Base medium 1 SSNC composition: beef extract 1 g/L, yeast extract 2 g/L, bacto soytone 6 g/L, NaCl 4 g/L, KH2PO4 5.44 g/L, MgSO4 2 mM, CaCl2 1 mM, MnCl2 0.1 mM, cysteine hydrochloride 0.25 g/L, hemin 10 mg/L, menadione 1 mg/L, MOPS 6.3 g/L, pH 7; Base medium 2 SPOSCR composition: beef extract 1 g/L, yeast extract 2 g/L, bacto soytone 6 g/L, NaCl 4 g/L, KH2PO4 5.44 g/L, MgSO4 2 mM, CaCl2) 1 mM, MnCl2 0.1 mM, cysteine hydrochloride 0.25 g/L, hemin 10 mg/L, menadione 1 mg/L, MOPS 8.4 g/L, NaHCO3 0.4%, pH 7; Base medium 3 YCFA: casitone 10 g/L, yeast extract 2.5 g/L, cysteine hydrochloride 1 g/L, hemin 10 mg/L, ATCC vitamin solution 10 mL/L, ATCC trace element solution 10 mL/L, K2HPO4 0.45 g/L, KH2PO4 0.45 g/L, (NH4)2SO4 0.9 g/L, MgSO4×7H2O 90 mg/L, CaCl2) 90 mg/L, acetic acid 33 mM, propionic acid 9 mM, isobutyric acid 1 mM, isovaleric acid 1 mM, valeric acid 1 mM, pH 7).
Positive growth was scored by measuring optical density at 600 nm and comparing it to growth in base medium without an added carbon source. For two, base media acid production was also scored by measuring optical density at 558 nm of pH-indicator phenol red mixed with spent medium from each culture.

[7] = LC-MS, substrate chenodeoxycholic acid

Clostridium_glycolicum
BSH gCA [1]: + (‘+’ indicates greater than 50-fold increase in levels of product bile acid, suggesting strong activity) | BSH gCDCA [1]: + (‘+’ indicates greater than 50-fold increase in levels of product bile acid, suggesting strong activity) | BSH t-aMCA [1]: + (‘+’ indicates greater than 50-fold increase in levels of product bile acid, suggesting strong activity) | BSH t-bMCA [1]: + (‘+’ indicates greater than 50-fold increase in levels of product bile acid, suggesting strong activity) | BSH tCA [1]: + (‘+’ indicates greater than 50-fold increase in levels of product bile acid, suggesting strong activity) | BSH tCDCA [1]: + (‘+’ indicates greater than 50-fold increase in levels of product bile acid, suggesting strong activity)

Clostridium butyricum
HSDH 3a [2]: − | HSDH 12a [2]: − | 7a Dehydrox CA [3]: − | 7a Dehydrox CDCA [3]: −

Clostridium symbiosum
BSH gCA [1]: +/− (‘+/−’ indicates ≤50-fold change in product bile acid levels, suggesting weak activity) | BSH gCDCA [1]: + (‘+’ indicates greater than 50-fold increase in levels of product bile acid, suggesting strong activity) | BSH t-aMCA [1]: − | BSH t-bMCA [1]: − | BSH tCA [1]: − | BSH tCDCA [1]: +/− (‘+/−’ indicates ≤50-fold change in product bile acid levels, suggesting weak activity) | HSDH 3a ([2]; LC-MS, 3a-HSDH): +/− (‘+/−’ indicates ≤50-fold change in product bile acid levels, suggesting weak activity) | HSDH 7a ([2]; LC-MS, 7a-HSDH): + (‘+’ indicates greater than 50-fold increase in levels of product bile acid, suggesting strong activity) | HSDH 12a ([2]; LC-MS, 12a-HSDH): − | 7a Dehydrox CDCA [3, 7]: − | 7a Dehydrox CA ([3]; LC-MS, substrate cholic acid): −

Clostridium paraputrificum
BSH gCA [1]: + (‘+’ indicates greater than 50-fold increase in levels of product bile acid, suggesting strong activity) | BSH gCDCA [1]: + (‘+’ indicates greater than 50-fold increase in levels of product bile acid, suggesting strong activity) | BSH t-aMCA [1]: + (‘+’ indicates greater than 50-fold increase in levels of product bile acid, suggesting strong activity) | BSH t-bMCA [1]: + (‘+’ indicates greater than 50-fold increase in levels of product bile acid, suggesting strong activity) | BSH tCA [1]: + (‘+’ indicates greater than 50-fold increase in levels of product bile acid, suggesting strong activity) | BSH tCDCA [1]: + (‘+’ indicates greater than 50-fold increase in levels of product bile acid, suggesting strong activity)

Clostridium_sordellii
BSH gCA [1]: + (‘+’ indicates greater than 50-fold increase in levels of product bile acid, suggesting strong activity) | BSH gCDCA [1]: + (‘+’ indicates greater than 50-fold increase in levels of product bile acid, suggesting strong activity) | BSH t-aMCA [1]: + (‘+’ indicates greater than 50-fold increase in levels of product bile acid, suggesting strong activity) | BSH t-bMCA [1]: + (‘+’ indicates greater than 50-fold increase in levels of product bile acid, suggesting strong activity) | BSH tCA [1]: + (‘+’ indicates greater than 50-fold increase in levels of product bile acid, suggesting strong activity) | BSH tCDCA [1]: + (‘+’ indicates greater than 50-fold increase in levels of product bile acid, suggesting strong activity) | HSDH 3a ([2]; LC-MS, 3a-HSDH): +/− (‘+/−’ indicates ≤50-fold change in product bile acid levels, suggesting weak activity) | HSDH 7a ([2]; LC-MS, 7a-HSDH): − | HSDH 12a ([2]; LC-MS, 12a-HSDH): − | 7a Dehydrox CDCA [3, 7]: − | 7a Dehydrox CA ([3]; LC-MS, substrate cholic acid): −

c1ccc2[nH]ccc2c1 [Indole, indole]
colour in indole spot test [4]: light blue color

O=C(O)CCc1c[nH]c2ccccc12 [indole-3-propionic acid]
colour in indole spot test [4]: purple spots

O=C(O)CCCc1c[nH]c2ccccc12 [indole-3-butyric acid]
colour in indole spot test [4]: purple spots

CC(=O)O [acetate]
HDAC inhibition activity at the highest tested concentration [5]: minimal HDAC inhibition activity

Blautia_producta
HSDH 3a ([2]; LC-MS, 3a-HSDH): − | HSDH 7a ([2]; LC-MS, 7a-HSDH): − | HSDH 12a ([2]; LC-MS, 12a-HSDH): − | 7a Dehydrox CDCA [3, 7]: − | 7a Dehydrox CA ([3]; LC-MS, substrate cholic acid): −

NCCc1c[nH]c2ccccc12 [tryptamine]
colour in indole spot test [4]: purple spots

CCC(=O)O [propionate]
IC50 ([5]; HeLa nuclear extract, HDAC-Glo I/II, read-out: HDAC inhibition IC50): 2400 µM

Cc1c[nH]c2ccccc12 [3-methyl-indole]
colour in indole spot test [4]: purple spots

Clostridium sp_7_2_43FAA
HSDH 3a ([2]; LC-MS, 3a-HSDH): +/− (‘+/−’ indicates ≤50-fold change in product bile acid levels, suggesting weak activity) | HSDH 7a ([2]; LC-MS, 7a-HSDH): + (‘+’ indicates greater than 50-fold increase in levels of product bile acid, suggesting strong activity) | HSDH 12a ([2]; LC-MS, 12a-HSDH): − | 7a Dehydrox CDCA [3, 7]: − | 7a Dehydrox CA ([3]; LC-MS, substrate cholic acid): −

CC(O)C(=O)O (centres unmarked) [Lactate]
HDAC inhibition activity at the highest tested concentration [5]: minimal HDAC inhibition activity

Blautia producta
BSH gCA [1]: − | BSH gCDCA [1]: − | BSH t-aMCA [1]: − | BSH t-bMCA [1]: − | BSH tCA [1]: − | BSH tCDCA [1]: − | utilization of carbon source Apple pectin ([6]; Apple pectin): + | utilization of carbon source Citrus pectin ([6]; Citrus pectin): + | utilization of carbon source NAG ([6]; NAG (N-acetylglucosamine)): + | utilization of carbon source alanine ([6]; alanine): + | utilization of carbon source asparagine ([6]; asparagine): + | utilization of carbon source cellobiose ([6]; cellobiose): + | utilization of carbon source cysteine ([6]; cysteine): w | utilization of carbon source dulcitol ([6]; dulcitol): + | utilization of carbon source esculin ([6]; esculin): + | utilization of carbon source formate ([6]; formate): + | utilization of carbon source fructose ([6]; fructose): + | utilization of carbon source glucose ([6]; glucose): + | utilization of carbon source glutamine ([6]; glutamine): w | utilization of carbon source glycochenodeoxycholate ([6]; glycochenodeoxycholate): w | utilization of carbon source mannitol ([6]; mannitol): + | utilization of carbon source mannose ([6]; mannose): + | utilization of carbon source melezitose ([6]; melezitose): + | utilization of carbon source oxalate ([6]; oxalate): w | utilization of carbon source polygalacturonate ([6]; polygalacturonate): + | utilization of carbon source rhamnose ([6]; rhamnose): + | utilization of carbon source ribose ([6]; ribose): + | utilization of carbon source salicin ([6]; salicin): + | utilization of carbon source serine ([6]; serine): + | utilization of carbon source sialic acid ([6]; sialic acid): + | utilization of carbon source sorbitol ([6]; sorbitol): + | utilization of carbon source sucrose ([6]; sucrose): + | utilization of carbon source taurochenodeoxycholate ([6]; taurochenodeoxycholate): w | utilization of carbon source threonine ([6]; threonine): w | utilization of carbon source trehalose ([6]; trehalose): + | utilization of carbon source xylitol ([6]; xylitol): + | utilization of carbon source xylose ([6]; xylose): + | HSDH 3a ([2]; LC-MS): − | HSDH 7a ([2]; LC-MS): − | HSDH 12a ([2]; LC-MS): − | 7a Dehydrox CA ([3]; LC-MS, substrate CA): − | 7a Dehydrox CDCA ([3]; LC-MS, substrate CDCA): −
